Holding throughout (type): cell-based, human
Assay [1] relates to LNCaP cells. Description: Microscopic cell morphology observation. The settings on record: 24 and 72 h of treatment. The method, then:
In our previous work, 16E-arylidene-4-azaandrost-5-ene derivatives were synthesized, their antiproliferative effects were evaluated and further studies were performed with the most promising steroid in LNCaP cells. Due to the similarity of 16E-arylidene-4-azaandrostenes and these novel 21E-arylidene-4-azapregnene derivatives, identical studies in this cell line were performed, namely a flow cytometry assay and microscopic cell morphology observation. To assess the viability of LNCaP cells when exposed to steroid 3g, a flow cytometry assay after PI staining was performed. Cells were treated with 3g and 5-FU during 24 and 72 h, and then a microscopic cell observation was performed to assess the possible morphological alterations and cell density changes triggered by incubation with 3g and compare with controls (Figure 6).
Similar to the previous study, the analysis of cell viability was accomplished by flow cytometry after staining dead cells with propidium iodide (PI; Invitrogen, Carlsbad, USA). Succinctly, 1 mL of a cell suspension was seeded in 12-well culture plates (initial cell density of 5 × 10^4 cells/mL of LNCaP cells for 24 h assay and 2 × 10^4 cells/mL of the same cell line for 72 h assay) in a complete culture medium. […] The percentages of each region were calculated for a total of R1 + R2 + R3. […]

Assay [2] deals with LNCaP cells. In words: Flow cytometry cell viability after PI staining. The note with it: 50 µM. The method, then: Similar to the previous study, the analysis of cell viability was accomplished by flow cytometry after staining dead cells with propidium iodide (PI; Invitrogen, Carlsbad, USA). Succinctly, 1 mL of a cell suspension was seeded in 12-well culture plates (initial cell density of 5 × 10^4 cells/mL of LNCaP cells for 24 h assay and 2 × 10^4 cells/mL of the same cell line for 72 h assay) in a complete culture medium. After 48 h, the cells were treated with finasteride and 5-FU, as positive controls, and compound 3g at a concentration of 50 µM. Untreated cells were used as a negative control. At the pretended time point, the supernatant was collected and pooled with the cells harvested by trypsin treatment (each well was also washed with 400 µL of PBS before trypsin treatment). The resulting cell suspension was kept on ice and pelleted by centrifugation and resuspended with 400 µL of complete medium. Afterward, 5 µL of PI (1 mg/mL) was transferred to a FACS tube and 395 µL of the cell suspension was added to this tube. A total of 20,000 events (very small events excluded) were acquired using a FACSCalibur flow cytometer, using the FCS, SSC and FL3 (PI) channels. Acquisition and analysis were executed with CellQuestTM Pro (v. 5.1) software. […] The percentages of each region were calculated for a total of R1 + R2 + R3. […]

Assay [3] relates to T47-D cells. In words: Fluorescence microscopy, PI/Hoechst 3342 staining. The settings on record: 20 µM, 24, 48 and 72 h, vs negative and positive controls. The method, then: To access the effects of the compound 3g in T47-D cells, fluorescence microscopy assays with Hoechst 3342 and PI staining were performed. T47-D cells were seeded at 2 × 10^4 cells/mL in a 24-well culture plate containing circular coverslips of 10 mm diameter, in a complete culture medium. After 48 h, cells were incubated during 24, 48 and 72 h, with 5-FU at 20 µM, as the positive control, steroid 3g at 20 µM, and untreated cells were used as a negative control. Then, cells were incubated with 20 µL/per well of a solution of PI in PBS at 1 mg/mL for 25 min at 37 °C. The medium was removed, and the cells were fixed with formalin 4% for 15 min at room temperature. Cells were washed three times with PBS and then they were incubated with 30 µL/per coverslip of Hoechst 33,342 (1:500) for 10 min. After incubation, cells were washed three times with PBS. Coverslips were mounted on a drop of permanent mounting medium (Dako) on a microscope slide and visualized in a Zeiss Axio Imager A1 microscope with the 40 × objective. The PI/Hoechst 3342 ratio was calculated by dividing PI-positive cells by Hoechst 3342-positive cells and, then the values were normalized.

Assay [4] deals with T47-D cells. Description: Cell nuclear morphology and distribution analysis with ImageJ. The source says:
The nuclear measurements were achieved by converting 16-bit photomicrographs of Hoechst 3342-stained nuclei, in different conditions, into 8-bit images and then these images were autothresholded to binary photos using the default method “Make binary” function of ImageJ v 1.49. Cell nuclei that are touching were separated and fragments were discarded based on the area through the “Analyze Particle” function. This function also provides several information pretended as nuclear area, circumference and form factor [33]. In addition, the “Nearest Neighbor Distance” was determined. This function allows measuring the distance between each cell nucleus and the nearest ones.

In the case of `C[C@]12CC[C@H]3[C@@H](CC=C4NC(=O)CC[C@@]43C)[C@@H]1CC[C@@H]2C(=O)/C=C/c1cccnc1` [Compound 3g, 21E-[(Pyridin-3-yl)methylidene]-4-azapregn-5-ene-3,20-dione], the “Cell morphology and cell density” value with LNCaP cells [1] was “detached, forming clusters and presenting a round form”. The “Number of living cells (PI non-permeant)” value in the assay on LNCaP cells [2] (24 h) is reported as “drastic reduction in the number of living cells”. Further, the “Number of viable cells (PI non-permeant)” value in the assay on LNCaP cells [2] (72 h) is “almost absent”. Moreover, in the assay on T47-D cells [3], the “Ratio of PI/Hoechst 3342 staining” value was “higher ratio of PI/Hoechst 3342 staining”. Besides, in the assay with T47-D cells [4] (20 µM, 24, 48 and 72 h, vs control), the Nuclear area result was “significant decrease in the nuclear area”. In the assay with T47-D cells [4] (20 µM, 48 and 72 h), the “Nearest neighbor distance (NND) of cell nuclei” value is “different distances”.

These data come from publication PMC9501232, “Novel 4-Azapregnene Derivatives as Potential Anticancer Agents: Synthesis, Antiproliferative Activity and Molecular Docking Studies” (Molecules, 2022).
